Here are results for one molecule from patent US6335356B1, “Method of treating a patient by parenteral administration of a lipophilic compound” (Sugen, Inc., priority 1994, dated 2002).

Converted amounts (≈) assume the structure as drawn.

Data set [1] is described as follows: Solubility of leflunomide in vehicles (POLYSORBATE 80:alcohol ratios, alcohol, VPD/PBTE). It counts as physicochemical. On the procedure:
(§1) Leflunomide has a low solubility in standard formulations used to dissolve compounds for parenteral administration. For example, the solubility of leflunomide in VPD (126 mg alcohol, 40 mg POLYSORBATE 80®, 3 mg citric acid, 15 mg benzyl alcohol, and 325 mg PEG MW300; also referred to as PBTE) is about 60 mg/ml. Parenterally administered VPD formulations should be diluted at least 1:2 with a pharmaceutically acceptable aqueous solution to avoid toxic effects. Such dilution can result in precipitation of lipophilic compounds. For leflunomide, a concentration in VPD greater than about 5 mg/ml precipitates when diluted 1:2 with a pharmaceutically aqueous solution such as WFI.
Increasing the solubility of leflunomide allows more leflunomide to be administered to a patient via parenteral administration. The formulations described by the present invention can use alcohol and a surfactant to solubilize leflunomide. Leflunomide is soluble in alcohol at 100 mg/ml. The surfactant is added to allow for the dilution into a pharmaceutically acceptable aqueous solution prior to injection.
Leflunomide was solubilized in varying ratios of POLYSORBATE 80® and alcohol. The leflunomide solutions were then tested for the ability to dilute with aqueous solutions.
As noted above, the stability of leflunomide in solution is pH dependent. To stabilize leflunomide varying amounts of citric acid (1 to 20 mg/ml) were added to both 33%T:66%E and 66%T:33%E. The citric acid decreased the apparent pH of the solutions.

A short description of data set [2]: Ability of leflunomide solutions to be diluted with aqueous solutions. It counts as physicochemical. The conditions noted are these: for Solubility: organic solvent or mixture, read-out: concentration soluble and allowing dilution with aqueous solutions. On the procedure:
as §1, with “WFI. Leflunomide was solubilized in varying ratios of POLYSORBATE 80® and alcohol. The leflunomide solutions were then tested for the ability to dilute with aqueous solutions.” for “WFI.”

Data set [3] is classed as physicochemical. The source says:
The pH of the formulations can be adjusted with a pharmaceutically acceptable excipient. For example, the apparent pH of the POLYSORBATE 80®:alcohol formulations can be adjusted with citric acid.

The nature of data set [4]: Physical stability (precipitation) of leflunomide solutions over time. The data set is classed as physicochemical.

`Cc1oncc1C(=O)Nc1ccc(C(F)(F)F)cc1` [Leflunomide, 5-methylisoxazole-4 carboxylic acid-(4-trifluromethyl)-anilide]: in data set [1] (33%:66%E with citric acid 1 to 20 mg/ml), the “solubility after addition of citric acid” value is “no longer soluble to the same extent”. Besides, the Solubility was roughly 60 mg/mL in data set [1] (VPD (PBTE) parenteral vehicle, organic solvent or mixture, VPD (126 mg alcohol, 40 mg POLYSORBATE 80, 3 mg citric acid, 15 mg benzyl alcohol, 325 mg PEG MW300; also PBTE), read-out: solubility in VPD); 100 mg/mL in data set [1] (alcohol, organic solvent or mixture, read-out: soluble in alcohol at); “Insoluble” in data set [1] (vehicle 33%T:66%E (POLYSORBATE 80:alcohol v/v), 100 mg/ml); “Soluble” in data set [1] (vehicle 33%T:66%E, 25 mg/ml); “Soluble” in data set [1] (vehicle 33%T:66%E, 50 mg/ml); “Soluble” in data set [1] (vehicle 50%T:50%E, 50 mg/ml). In addition, the Solubility entry is on record as “Soluble” in data set [1] (vehicle 50%T:50%E, 55 mg/ml); “Soluble” in data set [1] (vehicle 50%T:50%E, 60 mg/ml); “Soluble” in data set [1] (vehicle 50%T:50%E, 75 mg/ml); “Soluble” in data set [1] (vehicle 50%T:50%E, 100 mg/ml); “Soluble” in data set [1] (vehicle 66%T:33%E, 50 mg/ml); “Insoluble” in data set [1] (vehicle 66%T:33%E, 100 mg/ml). Moreover, the Solubility entry in data set [1] (vehicle PBTE6C:WFI, 2.5 mg/ml) was “Soluble”; in data set [1] (vehicle alcohol, 100 mg/ml), “Soluble”; in data set [2] (POLYSORBATE 80:alcohol vehicle 33%T:66%E, in 33%T:66%E), 25 mg/mL (≈ 92.5 mM); in data set [2] (POLYSORBATE 80:alcohol vehicle 66%T:33%E, in 66%T:33%E), 50 mg/mL (≈ 185 mM). Besides, the “concentration in VPD that precipitates when diluted 1:2” value in data set [2] (VPD diluted 1:2 with pharmaceutically aqueous solution such as WFI) was “greater than 5 mg/ml”. In addition, the stability in solution result in data set [3] is given as “breakdown to N-(4-trifluoromethylphenyl)-2-cyano-3-hydroxycrotonamide”. In addition, the remaining in solution entry is “precipitate started to occur” in data set [4] (20 mg/ml in 33%T:66%E with citric acid, 2-8° C. for 7 days); “remains in solution” in data set [4] (20 mg/ml in 33%T:66%E with either 4 or 6 mg/ml citric acid, 4° C.); “remains in solution” in data set [4] (20 mg/ml in 33%T:66%E with either 4 or 6 mg/ml citric acid, room temperature). Moreover, the “remaining in solution with time” value in data set [4] (25 mg/ml in 33%T:66%E, diluted with aqueous solutions, room temperature (22° C. to 26° C.), over 3 days) is reported as “falls out of solution”.
